Data set [1] in a line: Cytotoxicity against mouse J774 macrophage assessed as cell viability at 1 ug/mL after 48 hrs by MTT assay. Format: cell-based. As to conditions: J774 macrophage cells, read-out: Activity.
The subject of data set [2] is Mycobacterium tuberculosis. Kind of data set: Antimicrobial activity against Mycobacterium tuberculosis H37Rv ATCC 27294 assessed as minimum inhibitory concentration […] by micro plate Alamar blue assay. Format: functional.
Data set [3] can be described thus: Cytotoxicity against Mycobacterium bovis Bacillus Calmette-Guerin infected mouse J774 macrophage assessed as cell viability at 100 ug/mL after 48 hrs by MTT assay. The format is cell-based. As to conditions: J774 macrophage cells infected with Mycobacterium bovis BCG, read-out: Activity. (Tetrazolium assays rely on reduction of a dye to a coloured formazan, in cell work by metabolically active cells.)

The nature of data set [4]: Cytotoxicity against Mycobacterium bovis Bacillus Calmette-Guerin infected mouse J774 macrophage assessed as cell viability at 10 ug/mL after 48 hrs by MTT assay. The format is cell-based. As to conditions: J774 macrophage cells infected with Mycobacterium bovis BCG, read-out: Activity.
Data set [5] is described as follows: Cytotoxicity against Mycobacterium bovis Bacillus Calmette-Guerin infected mouse J774 macrophage assessed as cell viability at 1 ug/mL after 48 hrs by MTT assay. Format: cell-based. Conditions: J774 macrophage cells infected with Mycobacterium bovis BCG, read-out: Activity.
Data set [6] can be described thus: Cytotoxicity against mouse J774 macrophage assessed as cell viability at 100 ug/mL after 48 hrs by MTT assay. The format is cell-based. Conditions: J774 macrophage cells, read-out: Activity.
A short description of data set [7]: Cytotoxicity against mouse J774 macrophage assessed as cell viability at 10 ug/mL after 48 hrs by MTT assay. Format: cell-based. Conditions: J774 macrophage cells, read-out: Activity.

Values after ≈ are worked out from the molar mass of the structure shown. Active and inactive are the calls of the source. The calls are words filed in the database; no cut-off is given here.

By MIC is commonly meant the lowest concentration that inhibits growth of the organism.

Turning to `NCCCCCCCCCN`, the viability at 48 h, 1 ug/mL in data set [1] and in data set [5] was 100% each time. In data set [2], the minimum inhibitory concentration (MIC) was determined as 3.12 µg/mL (≈ 19.7 µM). Further, the results for the viability at 48 h, 100 ug/mL in data set [3] and in data set [6] were 71% and 100%, respectively. Further, the viability at 48 h, 10 ug/mL in data set [4] and in data set [7] was 100% throughout.
Turning to `NCCCCCCN`, the values for the viability at 48 h, 1 ug/mL in data set [1] and in data set [5] were 100% and 98%, respectively. Moreover, the MIC result in data set [2] was “inactive”. The values for the viability at 48 h, 100 ug/mL in data set [3] and in data set [6] were 76% and 100%, respectively. In addition, the viability at 48 h, 10 ug/mL in data set [4] came out at 92%; in data set [7] it was 100%.
As to `NCCCCN` [PUTRESCINE], the viability at 48 h, 1 ug/mL in data set [1] and in data set [5] was 100% in each case. For the same compound, the MIC result in data set [2] was “inactive”. In addition, the viability at 48 h, 100 ug/mL in data set [3] turned out to be 82%; in data set [6], 100%. Also, the values for the viability at 48 h, 10 ug/mL in data set [4] and in data set [7] were 90% and 100%, respectively.
Consider `NCCN` [ETHYLENEDIAMINE], for which the viability at 48 h, 1 ug/mL in data set [1] came to 100%; in data set [5] it was 35%. The MIC entry in data set [2] was “inactive”. The figures for the viability at 48 h, 100 ug/mL in data set [3] and in data set [6] were 29% and 100%, respectively. For the same compound, the figures for the viability at 48 h, 10 ug/mL in data set [4] and in data set [7] were 23% and 100%, respectively.
As for `NCCCCCCCCN` [DIAMINOOCTANE], the viability at 48 h, 1 ug/mL in data set [1] came out at 100%; in data set [5] it was 68%. Besides, the MIC entry in data set [2] is “inactive”. For the same compound, the viability at 48 h, 100 ug/mL is 64% in data set [3] and 95% in data set [6]. Also, the results for the viability at 48 h, 10 ug/mL in data set [4] and in data set [7] were 64% and 100%, respectively.
Regarding `NCCCCCCCCCCN`, the viability at 48 h, 1 ug/mL turned out to be 100% in data set [1] and 56% in data set [5]. The minimum inhibitory concentration (MIC) in data set [2] was 3.12 µg/mL (≈ 18.1 µM). The viability at 48 h, 100 ug/mL in data set [3] came to 42%; in data set [6], 94%. The viability at 48 h, 10 ug/mL in data set [4] turned out to be 34%; in data set [7], 100%.
Take `NCCCCCCCCCCCCN`: the viability at 48 h, 1 ug/mL in data set [1] was found to be 100%; in data set [5], 56%. For the same compound, the MIC in data set [2] was 2.5 µg/mL (≈ 12.5 µM). The viability at 48 h, 100 ug/mL was determined as 38% in data set [3] and 100% in data set [6]. Besides, the results for the viability at 48 h, 10 ug/mL in data set [4] and in data set [7] were 49% and 100%, respectively.
With `NCCCCCCCN`, the viability at 48 h, 1 ug/mL in data set [1] stood at 100%; in data set [5] it was 79%. Moreover, the MIC result in data set [2] is “inactive”. Moreover, the viability at 48 h, 100 ug/mL amounted to 70% in data set [3] and 100% in data set [6]. Besides, the viability at 48 h, 10 ug/mL amounted to 78% in data set [4] and 100% in data set [7].
For `NCCCCCN`, the viability at 48 h, 1 ug/mL in data set [1] and in data set [5] was 100% in each case. Further, in data set [2], the MIC entry is “inactive”. Besides, the figures for the viability at 48 h, 100 ug/mL in data set [3] and in data set [6] were 98% and 100%, respectively. The viability at 48 h, 10 ug/mL in data set [4] and in data set [7] was 100% in each case.
Take `NCCCN`: the viability at 48 h, 1 ug/mL in data set [1] and in data set [5] was 100% in each case. Also, the MIC result in data set [2] is “inactive”. Moreover, the viability at 48 h, 100 ug/mL was 89% in data set [3] and 100% in data set [6]. Further, the viability at 48 h, 10 ug/mL in data set [4] came out at 94%; in data set [7], 100%.
In the case of `CC[C@@H](CO)NCCN[C@@H](CC)CO` [ETHAMBUTOL], the viability at 48 h, 1 ug/mL in data set [1] is 100%; in data set [5], 92%. For the same compound, the values for the viability at 48 h, 100 ug/mL in data set [3] and in data set [6] were 85% and 82%, respectively. The viability at 48 h, 10 ug/mL in data set [4] is 88%; in data set [7], 93%.
`NCCCCCCCCCCCN`: the figures for the viability at 48 h, 1 ug/mL in data set [1] and in data set [5] were 100% and 58%, respectively. In addition, in data set [2], the MIC is 3.12 µg/mL (≈ 16.7 µM). The viability at 48 h, 100 ug/mL turned out to be 40% in data set [3] and 100% in data set [6]. Moreover, the viability at 48 h, 10 ug/mL in data set [4] was 53%; in data set [7] it was 100%.

For the origin of these results see ChEMBL document CHEMBL1155350, “Antitubercular activity of alpha,omega-diaminoalkanes, H2N(CH2)nNH2” (Bioorg Med Chem Lett, 2009).
